Results from patent publication US20020137929A1, “1 - (3-heterocyclylphenyl) isothiourea, -isourea, -guanidine and -amidine herbicidal agents” (Intellectual Property Department, BASF Aktiengesellschaft, priority 1998, published 2002).

Key:
AMBEL (Ragweed, Common) = experiment: Postemergence herbicidal evaluation; type: in vivo, Ambrosia artemisifolia
Summary of the method: (§1)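 Young plants, roughly two weeks from seeding, receive the active ingredient as a sprayed dispersion (acetone/water 50/50, 0.5% TWEEN 20) at 40 psi. Doses span about 0.0156 to 0.500 kg/ha. A visual score from 0 to 9 compares treated with control plants four to five weeks on.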

CASOB (Sicklepod) [1] = experiment: Postemergence herbicidal evaluation; type: in vivo, Cassia obtusifolia
Summary of the method: as §1

GALAP (Galium) = experiment: Postemergence herbicidal evaluation; type: in vivo, Galium aparine
Summary of the method: as §1

[2] = test system: IPOHE (Morningglory, Ivyleaf); experiment: Postemergence herbicidal evaluation; type: in vivo, Ipomoea hederacea
Summary of the method: as §1

ABUTH (Velvetleaf) = experiment: Preemergence herbicidal evaluation; type: in vivo, Abutilon theophrasti; details: rated 4-5 weeks after treatment
Summary of the method: (§2)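 Seeds were planted in potting soil in cups, then sprayed preemergence with the test compound in aqueous acetone at about 0.0156 to 0.500 kg per hectare. Cups were kept under greenhouse conditions and visually rated 4–5 weeks after treatment on a 0–9 scale against an untreated control.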

CASOB (Sicklepod) [3] = experiment: Preemergence herbicidal evaluation; type: in vivo, Cassia obtusifolia; details: rated 4-5 weeks after treatment
Summary of the method: as §2

[4] = test system: IPOHE (Morningglory, Ivyleaf); experiment: Preemergence herbicidal evaluation; type: in vivo, Ipomoea hederacea; details: rated 4-5 weeks after treatment
Summary of the method: as §2

ECHCG (Barnyardgrass) = experiment: Preemergence herbicidal evaluation; type: in vivo, Echinochloa crus-galli; details: rated 4-5 weeks after treatment
Summary of the method: as §2

[5] = test system: GLXMAW (Soybean, Williams); experiment: Preemergence herbicidal evaluation; type: in vivo, Glycine max, (L.) Merr. cv Williams; details: rated 4-5 weeks after treatment
Summary of the method: as §2

[6] = test system: TRZAWR (Wheat, Winter, cv Riband); experiment: Preemergence herbicidal evaluation; type: in vivo, Triticum aestivum; details: rated 4-5 weeks after treatment
Summary of the method: as §2

ZEAMX (Corn, Field) = experiment: Preemergence herbicidal evaluation; type: in vivo, Zea mays; details: rated 4-5 weeks after treatment
Summary of the method: as §2

[7] = test system: SAGPY (Arrowhead (Pygmaea)); experiment: Preemergence weed control under flooded paddy conditions; type: in vivo, Sagittaria pygmaea; details: rated 3-4 weeks after treatment
Summary of the method: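 Flooded-pot preemergence screen with silt loam and seeds in the upper 0.5 cm. Dose about 0.0313 to 0.500 kg/ha, delivered into flood water; visual 0-9 score after 3 to 4 weeks.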

CYPIR (Rice Flatsedge) = experiment: Postemergence weed control under flooded paddy conditions; type: in vivo, Cyperus iria; details: postemergence weeds, 3-4 weeks after treatment
Summary of the method: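 Containers holding 3–5 cm weeds and rice at 1.5–2.5 leaves are flooded to 1.5–3 cm above soil. Compound in 50/50 v/v aqueous/acetone is then added directly to the water, about 0.0313–0.500 kg/ha. Plants are kept in the greenhouse and rated 0–9 visually at 3–4 weeks.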

CCOC(=O)CN1CCSC1=Nc1cc(-n2nc(C)n(C(F)F)c2=O)c(F)cc1Cl [Compound 36]
3.0: Postemergence herbicidal rating AMBEL (AMBEL (Ragweed, Common); Rate 0.0315 kg/ha) | Preemergence herbicidal rating ZEAMX (ZEAMX (Corn, Field); rate 0.1250 kg/ha) | Herbicidal rating SAGPY ([7]; 0.1250 kg/ha)
5.0: Herbicidal rating CYPIR (CYPIR (Rice Flatsedge); rate 0.0625 kg/ha) | Herbicidal rating CYPIR (CYPIR (Rice Flatsedge); rate 0.1250 kg/ha)
1.0: Postemergence herbicidal rating GALAP (GALAP (Galium); Rate 0.0315 kg/ha) | Preemergence herbicidal rating TRZAWR ([6]; rate 0.1250 kg/ha)
4.0: Postemergence herbicidal rating GALAP (GALAP (Galium); Rate 0.0630 kg/ha)
6.0: Preemergence herbicidal rating ECHCG (ECHCG (Barnyardgrass); rate 0.2500 kg/ha) | Preemergence herbicidal rating ZEAMX (ZEAMX (Corn, Field); rate 0.2500 kg/ha)
0.0: Postemergence herbicidal rating CASOB (CASOB (Sicklepod) [1]; Rate 0.0158 kg/ha) | Postemergence herbicidal rating CASOB (CASOB (Sicklepod) [1]; Rate 0.0315 kg/ha) | Postemergence herbicidal rating CASOB (CASOB (Sicklepod) [1]; Rate 0.0630 kg/ha) | Postemergence herbicidal rating GALAP (GALAP (Galium); Rate 0.0158 kg/ha) | Preemergence herbicidal rating CASOB (CASOB (Sicklepod) [3]; rate 0.0625 kg/ha) | Preemergence herbicidal rating CASOB (CASOB (Sicklepod) [3]; rate 0.2500 kg/ha) | Preemergence herbicidal rating IPOHE ([4]; rate 0.0625 kg/ha) | Preemergence herbicidal rating IPOHE ([4]; rate 0.1250 kg/ha) | Preemergence herbicidal rating IPOHE ([4]; rate 0.2500 kg/ha) | Preemergence herbicidal rating ECHCG (ECHCG (Barnyardgrass); rate 0.0625 kg/ha) | Preemergence herbicidal rating GLXMAW ([5]; rate 0.0625 kg/ha) | Preemergence herbicidal rating GLXMAW ([5]; rate 0.1250 kg/ha) | Preemergence herbicidal rating GLXMAW ([5]; rate 0.2500 kg/ha) | Preemergence herbicidal rating TRZAWR ([6]; rate 0.0625 kg/ha) | Preemergence herbicidal rating TRZAWR ([6]; rate 0.2500 kg/ha) | Preemergence herbicidal rating ZEAMX (ZEAMX (Corn, Field); rate 0.0625 kg/ha) | Herbicidal rating SAGPY ([7]; 0.0313 kg/ha) | Herbicidal rating SAGPY ([7]; 0.0625 kg/ha) | Herbicidal rating CYPIR (CYPIR (Rice Flatsedge); rate 0.0313 kg/ha)
9.0: Postemergence herbicidal rating AMBEL (AMBEL (Ragweed, Common); Rate 0.0630 kg/ha) | Postemergence herbicidal rating IPOHE ([2]; Rate 0.0158 kg/ha) | Postemergence herbicidal rating IPOHE ([2]; Rate 0.0315 kg/ha) | Postemergence herbicidal rating IPOHE ([2]; Rate 0.0630 kg/ha) | Preemergence herbicidal rating ABUTH (ABUTH (Velvetleaf); rate 0.0625 kg/ha) | Preemergence herbicidal rating ABUTH (ABUTH (Velvetleaf); rate 0.1250 kg/ha) | Preemergence herbicidal rating ABUTH (ABUTH (Velvetleaf); rate 0.2500 kg/ha) | Herbicidal rating SAGPY ([7]; 0.2500 kg/ha) | Herbicidal rating CYPIR (CYPIR (Rice Flatsedge); rate 0.2500 kg/ha)
2.0: Postemergence herbicidal rating AMBEL (AMBEL (Ragweed, Common); Rate 0.0158 kg/ha) | Preemergence herbicidal rating ECHCG (ECHCG (Barnyardgrass); rate 0.1250 kg/ha)

CCOP(=O)(CN1C(=O)CSC1=Nc1cc(-n2c(=O)cc(C(F)(F)F)n(C)c2=O)c(F)cc1Cl)OCC [Compound 35, Diethyl {{2-{{2-chloro-5-[3,6-dihydro-3-methyl-2,6-dioxo-4-(trifluoromethyl)-1(2H)-pyrimidinyl]-4-fluorophenyl}imino}-4-oxo-3-thiazolidinyl}methyl}phosphonate]
4.0: Postemergence herbicidal rating GALAP (GALAP (Galium); Rate 0.0158 kg/ha)
5.0: Postemergence herbicidal rating GALAP (GALAP (Galium); Rate 0.0315 kg/ha) | Postemergence herbicidal rating GALAP (GALAP (Galium); Rate 0.0630 kg/ha)
3.0: Postemergence herbicidal rating CASOB (CASOB (Sicklepod) [1]; Rate 0.0315 kg/ha) | Preemergence herbicidal rating CASOB (CASOB (Sicklepod) [3]; rate 0.2500 kg/ha) | Preemergence herbicidal rating IPOHE ([4]; rate 0.1250 kg/ha) | Preemergence herbicidal rating TRZAWR ([6]; rate 0.2500 kg/ha) | Herbicidal rating SAGPY ([7]; 0.2500 kg/ha)
1.0: Preemergence herbicidal rating TRZAWR ([6]; rate 0.1250 kg/ha)
9.0: Postemergence herbicidal rating AMBEL (AMBEL (Ragweed, Common); Rate 0.0158 kg/ha) | Postemergence herbicidal rating AMBEL (AMBEL (Ragweed, Common); Rate 0.0315 kg/ha) | Postemergence herbicidal rating AMBEL (AMBEL (Ragweed, Common); Rate 0.0630 kg/ha) | Postemergence herbicidal rating CASOB (CASOB (Sicklepod) [1]; Rate 0.0630 kg/ha) | Postemergence herbicidal rating IPOHE ([2]; Rate 0.0158 kg/ha) | Postemergence herbicidal rating IPOHE ([2]; Rate 0.0315 kg/ha) | Postemergence herbicidal rating IPOHE ([2]; Rate 0.0630 kg/ha) | Preemergence herbicidal rating ABUTH (ABUTH (Velvetleaf); rate 0.0625 kg/ha) | Preemergence herbicidal rating ABUTH (ABUTH (Velvetleaf); rate 0.1250 kg/ha) | Preemergence herbicidal rating ABUTH (ABUTH (Velvetleaf); rate 0.2500 kg/ha) | Preemergence herbicidal rating IPOHE ([4]; rate 0.2500 kg/ha)
2.0: Preemergence herbicidal rating GLXMAW ([5]; rate 0.2500 kg/ha)
0.0: Postemergence herbicidal rating CASOB (CASOB (Sicklepod) [1]; Rate 0.0158 kg/ha) | Preemergence herbicidal rating CASOB (CASOB (Sicklepod) [3]; rate 0.0625 kg/ha) | Preemergence herbicidal rating CASOB (CASOB (Sicklepod) [3]; rate 0.1250 kg/ha) | Preemergence herbicidal rating IPOHE ([4]; rate 0.0625 kg/ha) | Preemergence herbicidal rating ECHCG (ECHCG (Barnyardgrass); rate 0.0625 kg/ha) | Preemergence herbicidal rating ECHCG (ECHCG (Barnyardgrass); rate 0.1250 kg/ha) | Preemergence herbicidal rating ECHCG (ECHCG (Barnyardgrass); rate 0.2500 kg/ha) | Preemergence herbicidal rating GLXMAW ([5]; rate 0.0625 kg/ha) | Preemergence herbicidal rating GLXMAW ([5]; rate 0.1250 kg/ha) | Preemergence herbicidal rating TRZAWR ([6]; rate 0.0625 kg/ha) | Preemergence herbicidal rating ZEAMX (ZEAMX (Corn, Field); rate 0.0625 kg/ha) | Preemergence herbicidal rating ZEAMX (ZEAMX (Corn, Field); rate 0.1250 kg/ha) | Preemergence herbicidal rating ZEAMX (ZEAMX (Corn, Field); rate 0.2500 kg/ha) | Herbicidal rating SAGPY ([7]; 0.1250 kg/ha) | Herbicidal rating CYPIR (CYPIR (Rice Flatsedge); rate 0.1250 kg/ha) | Herbicidal rating CYPIR (CYPIR (Rice Flatsedge); rate 0.2500 kg/ha)
